# Several values for one entry are separate records, joined by “and”; a condition that tells them apart may be missing. Equal entries are not always repeated. Entries after “also recorded” stand apart in the source; their conditions may differ.
# Experiments:
# LLC [1] = assay: Antitumor activity, C57BL/6J mice bearing s.c. LLC; conditions: for survival: 30 mg/kg q.o.d. TNP-470 equivalent; for tumor growth inhibition: day 8, 30 mg/kg q.o.d., treatment started at 100 mm^3; for T/C: day 8, treatment started at 500 mm^3
# Excerpt: Male C57BL/6J mice (˜8 weeks, ˜20 g) were inoculated with 5×10^6 viable LLC or A2058 melanoma cells s.c. The tumors were allowed to grow to a volume of approximately 100 mm^3. […] Each group consisted of 5 mice. Mice were euthanized when tumors reached or surpassed a size equivalent to 30% of their body weight. Animals were weighed daily and observed for signs of tumor progression and euthanized if their body weight decreased below 80% of their starting weight. Animals were monitored for general health, weight loss, and tumor progression. At termination, mice underwent post-mortem examination and tumors were dissected and weighed. […] The same dosing schedule was repeated with white SCID male mice (˜8 weeks, 20 g) inoculated with 5×10^6 viable A2058 human melanoma cells s.c. and treated as described above.
# [2] = tested on: murine, human and metastatic tumors; conditions: cited from earlier work
# LLC [3] = conditions: at doses of 60 and 90 mg/kg/q.o.d., stated as known; cited from earlier work
# in vivo = conditions: male, C57BL/6J, mouse, 30 mg/kg
# [4] = Rotorod test and body weight, 5 weeks treatment
# A2058 human melanoma = assay: Antitumor activity, SCID mice bearing s.c. A2058 human melanoma; assay type: in vivo; conditions: for T/C (mean tumor volume treated / untreated control) / survival: 30 mg/kg TNP-470 equivalent
# Excerpt: Each group consisted of 5 mice. […] 500 mm^3.
# liver regeneration = assay: Hepatectomy (liver regeneration) model; assay type: in vivo, C57BL/6J mice; conditions: for average liver size on post-operative day 8: 30 mg/kg q.o.d. s.c., controls regenerate to ~1.2 g
# Method: Male C57BL/6J mice underwent a partial hepatectomy through a midline incision after general anesthesia with isoflourane^33. Free or conjugated TNP-470 (30 mg/kg) were given s.c. every other day for 8 days beginning on the day of surgery according to the scheme described in FIG. 4a. Alternatively, the doses given were 60 mg/kg the day of surgery and 4 days later or 120 mg/kg once on the day of the partial hepatectomy. The liver was harvested on the 8th day, weighed and analyzed by histology.
# This non-neoplastic model is a relatively fast (8 days) in vivo angiogenesis-dependent process^33.
# Early mouse development = conditions: injected into 7 and 17 day-old mice
# chick aortic ring = assay: Chick aortic ring endothelial sprouting assay; assay type: cell-based; conditions: Matrigel
# Method: Aortic arches were dissected from day-14 chick embryos, cut into cross-sectional fragments, and implanted in vitro in Matrigel using a modification of methods previously described (V. Muthukkaruppan, personal communication). When cultured in MCDB-131 medium supplemented with 5% fetal bovine serum, endothelial cells sprouted and vascular channel formation occurred within 24-48 hours.
# A2058 melanoma cells = assay: Serum-induced A2058 cell proliferation
# Method: The dotted line represents the proliferation of bFGF-induced BCE or serum-induced A2058 cells (—) and the […] represents the BCE and A2058 cell proliferation in the absence of bFGF or serum, respectively ( - - - ).
# BCE cells were obtained and grown as previously described^48. For the proliferation assay, cells were washed with PBS and dispersed in a 0.05% trypsin solution. […] The media was replaced with 0.25 ml of DMEM, 5% BCS and 1% GPS and the test sample applied. […] After 30 min of incubation, media and bFGF were added to obtain a final volume of 0.5 ml of DMEM, 5% BCS, 1% GPS and 1 ng/ml bFGF. Control cells were grown with or without bFGF. After 72 hr, cells were dispersed in trypsin, resuspended in Hematall (Fisher Scientific, Pittsburgh, Pa.), and counted in a Coulter counter.
# [5] = clinical pharmacokinetics, in words; cited from earlier work
# cathepsin B = cathepsin B (Homo sapiens, UniProt P07858); conditions: incubation with cathepsin B, pH 5.5, 37° C.
# Excerpt: These conditions imitate the lysosomal environment in endothelial cells where lysosomal enzymes, such as cathepsin B, are present.
# [6] = in mice, mostly 30 mg/kg subcutaneously every other day
# [7] = 30 mg/kg q.o.d. s.c. for 5 weeks
compound,measurement,setting,value
"CO[C@@H]1[C@H](OC(=O)NC(=O)CCl)CC[C@]2(CO2)[C@H]1[C@@]1(C)O[C@@H]1CC=C(C)C [TNP-470, O-(chloracetyl-carbamoyl) fumagillol]",survival,LLC [1],increased survival
same,tumor growth inhibition,LLC [1],67%
same,inhibition of growth of human tumors,[2]; [6],up to 100%
same,inhibition of growth of metastatic tumors,[2]; [6],up to 100%
same,inhibition of growth of murine tumors,[2]; mostly 30 mg/kg subcutaneously every other day,up to 91%
same,body weight of animals receiving the drug,[2]; with few exceptions,weight loss or failure to gain weight
same,toxicity to the mice,LLC [3],toxic
same,concentration at 1 h,in vivo,0.9 ng/mL
same,concentration at 2 h,in vivo,1.7 ng/mL
same,body weight,[4]; [7],lost weight
same,time remaining on the rotating rod,[4]; [7],significantly shorter times
same,neurohistological alterations,[4]; data not shown,no visible neurohistological alterations
same,T/C (mean tumor volume treated / untreated control),A2058 human melanoma,0.34
same,survival,A2058 human melanoma,increased survival
same,average liver size on post-operative day 8,liver regeneration,0.7 g
same,inhibition of liver regeneration,liver regeneration; 30 mg/kg/q.o.d s.c.,inhibited liver regeneration
same,inhibition of liver regeneration,liver regeneration; 60 mg/kg every four days,did not inhibit liver regeneration
same,inhibition of liver regeneration,"liver regeneration; single injection of 120 mg/kg on the day of hepatectomy, 120 mg/kg",did not inhibit liver regeneration
same,water solubility,Water solubility,not water-soluble
same,effect on normal development (weight gain) of newborn mice,Early mouse development,causes delay in newborn mice development; also recorded: inhibited growth
same,concentration that completely prevented outgrowth,chick aortic ring,100 pg/mL
same,concentration that reduced the number and length of vascular sprouts,chick aortic ring,50 pg/mL
same,TNP-470 in serum,after the 2 h time point,no detectable
same,free TNP-470 concentrations in tumor specimens,any sample time point,no detectable concentrations
same,concentration at which inhibition of serum-induced proliferation (cytostatic effect) begins,A2058 melanoma cells; 72 h,≥ 10 ng/mL
same,doses with cytotoxic effect,A2058 melanoma cells; 72 h,higher than 100 μg/ml
same,potency on endothelial cells relative to tumor cells,A2058 melanoma cells; BCE versus A2058 / tumor cells,4 logs and 3 logs
COc1cccc2c1C(=O)c1c(O)c3c(c(O)c1C2=O)C[C@@](O)(C(=O)CO)C[C@@H]3O[C@H]1C[C@H](N)[C@H](O)[C@H](C)O1 [doxorubicin],t1/2a,[5],a few minutes
HPMA copolymer-Gly-Phe-Leu-Gly (SEQ ID NO: 1)-ethylenediamine-TNP-470 [HPMA copolymer-TNP-470],survival,LLC [1],increased survival
same,T/C,LLC [1]; 30 mg/kg/q.o.d,0.4
same,T/C,LLC [1]; 60 mg/kg/q.o.d,0.4
same,T/C,LLC [1]; 90 mg/kg/q.o.d,0.24
same,tumor growth inhibition,LLC [1],86%
same,time until TNP-470 release from the conjugate reached a plateau,cathepsin B,≤ 5 h
same,T/C (mean tumor volume treated / untreated control),A2058 human melanoma,0.12
same,survival,A2058 human melanoma,increased survival
same,T/C values for the conjugate,"A2058 human melanoma; summary statement in the conclusions, model not named",0.12-0.14
same,average liver size on post-operative day 8,liver regeneration,0.7 g
same,inhibition of liver regeneration,liver regeneration; 30 mg/kg/q.o.d s.c.,inhibited liver regeneration
same,inhibition of liver regeneration,"liver regeneration; 60 mg/kg every four days, listed as Conjugated TNP-470",inhibited liver regeneration
same,inhibition of liver regeneration,"liver regeneration; 60 mg/kg every four days, listed as HPMA copolymer-TNP-470 conjugate",equivalent effect as the 30 mg/kg q.o.d. dosing schedule
same,inhibition of liver regeneration,"liver regeneration; single injection of 120 mg/kg on the day of hepatectomy, listed as Conjugated TNP-470, 120 mg/kg",inhibited liver regeneration
same,inhibition of liver regeneration,"liver regeneration; single injection of 120 mg/kg on the day of hepatectomy, listed as HPMA copolymer-TNP-470 conjugate, 120 mg/kg",equivalent effect as the 30 mg/kg q.o.d. dosing schedule
same,concentration that completely prevented outgrowth,chick aortic ring,100 pg/mL
same,concentration that reduced the number and length of vascular sprouts,chick aortic ring,50 pg/mL
